{
  "source": "patent US6911432B2",
  "about": "“Drugs, foods or drinks with the use of algae-derived physiologically active substances” (priority 1997, dated 2005)",
  "key": {"[1]": {"tested_on": "HL-60 cells", "assay": "antiproliferation assay, MTT method, absorbance at 590 nm", "type": "cell-based, human", "details": "for dilution rate of the dilution added to the group whose absorbance at 590 nm was less than one-half of that of the control group: 50 mM solution diluted 2- to 128-fold, dilution rate 1 corresponds to 5 mM in the cell culture medium; for IC50: read-out: IC50 (concentration required for 50% proliferation inhibitory rate); for antiproliferation activity against HL-60 cells (in words): preparations and fractions, compared with control to which water was added"}, "[2]": {"assay": "reaction with L-cysteine or L-lysine in phosphate buffered saline at 37° C., thin layer chromatography", "type": "physicochemical", "procedure": "(2) Agarobiose and agarohexaose obtained in Example 14-(1) were dissolved in water to prepare 100 mM aqueous solutions thereof. To each 25 μl of these solutions was added 50 μl of 100 mM aqueous L-cysteine solution, followed by addition of 925 μl of phosphate buffered saline. Then, the mixture was treated at 37° C. for 1 hour or 16 hours. The same reaction was repeated except that an aqueous solution containing the same concentration of L-lysine was used instead of the aqueous L-cysteine solution.\n1 μl of a sample from each reaction was spotted on a silica gel sheet 60 F254, developed with 1-butanol:ethanol:water=5:5:1 and detected by orcinol-sulfate method."}, "[3]": {"tested_on": "RAW264.7", "assay": "antiproliferation assay, MTT method", "type": "cell-based, mouse", "details": "for dilution rate of the dilution added to the group whose absorbance at 590 nm was less than one-half of that of the control group: dilution rate 1 corresponds to 5 mM in medium; for IC50: read-out: IC50 (concentration required for 50% proliferation inhibitory rate)", "procedure": "(§1) Each fraction was sterilized by filtration and its 10 μl portion was placed in a well of a 96 well microtiter plate. […] The cell morphology was observed under an optical microscope. […] The absorbance at 590 nm was measured to determine a cell proliferation rate. (2) A 50 mM solution of agarobiose, agarotetraose or agarohexaose obtained in Example 3-(1) was sterilized by filtration and diluted 2-, 4-, 8-, 16-, 32-, 64- and 128-folds with sterilized water. […] [table] The number in Table 3 represents the dilution rate of the dilution added to the group whose absorbance at 590 nm was less than one-half of that of the control group to which water was added. […] Then, for agarobiose, agarotetraose and agarohexaose, the concentrations required for 50% proliferation inhibitory rate (IC50) are calculated based on the change in the absorbance at 590 nm, and are shown in Table 4."}, "[4]": {"tested_on": "HepG2", "assay": "antiproliferation assay, MTT method", "type": "cell-based, human", "details": "for dilution rate of the dilution added to the group whose absorbance at 590 nm was less than one-half of that of the control group: dilution rate 1 corresponds to 5 mM in medium; for IC50: read-out: IC50 (concentration required for 50% proliferation inhibitory rate)", "procedure": "as §1"}, "[5]": {"tested_on": "Mouse melanoma cell B16BL6", "assay": "inhibition of melanin production, absorbance at 400 nm", "type": "cell-based", "procedure": "Mouse melanoma cell B16BL6 suspended in RPMI-1640 containing 10% FBS was placed in a 6 well plate at a concentration of 5×10^4 cells/2 ml medium/well and incubated at 37° C. On the 2nd day, 100 μl of agarobiose solution (2 mg/ml to 0.2 mg/ml) was added thereto, and on the 7th day, the medium was changed and, at the same time, 100 μl of agarobiose solution (2 mg/ml to 0.2 mg/ml) was added thereto. On the 8th day, the cells were collected, DNA, RNA and protein were decomposed, and then the absorbance at 400 nm was measured to examine an activity of inhibiting melanin production.\nNamely, after removing the medium by suction, 0.3 ml of 0.25% trypsin dissolved in 20 mM EDTA solution was added to each well and the plate was incubated at 37° C. for 10 minutes. Then, 2 ml of the fresh medium was added to the well and the cells were suspended. The suspension was collected into a test tube. The medium was then removed by centrifugation and the cells were suspended in 2 ml of PBS and centrifuged again. After removing the supernatant, 30 μl of 50 mM sodium acetate buffer (pH 5.0) containing 5 mM manganese chloride and 1 μl of 70,000 U/ml DNase I (manufactured by Takara Shuzo) were added to the cells and thoroughly mixed. The mixture was incubated at 37° C. for 2 hours to decompose DNA. Then, 1 μl of 10 mg/ml ribonuclease A (manufactured by Sigma) was added to the mixture and the resultant mixture was incubated at 50° C. for 1 hour to decompose RNA. Finally, 100 mM Tris-hydrochloric acid buffer (pH 7.8) containing 100 μg/ml proteinase K (manufactured by Sigma), 0.1% Triton x and 10 mM EDTA was added thereto to make the total volume up to 200 μl for 2×10^6 cells, and the mixture was incubated at 37° C. for 16 hours and then the absorbance at 400 nm was measured."}, "[6]": {"tested_on": "RAW 264.7 cells", "assay": "NO production induced by LPS, NO2- concentration in medium", "type": "cell-based, mouse", "details": "RAW 264.7; 10 μl of 5000 to 50 μM solution per 500 μl well; 12 hours", "procedure": "(1) RAW 264.7 cells (ATCC TIB 71) were suspended in phenol red-free Dulbecco's modified Eagle's medium containing 10% fetal bovine serum (manufactured by Gibco) and 2 mM L-glutamine (manufactured by Life Technologies Oriental, 25030-149) at a concentration of 3×10^5 cells/ml, and 500 μl portions thereof were seeded to respective wells of a 48-well microtiter plate and incubated at 37° C. for 12 hours in the presence of 5% CO2. To each well were added 10 μl of 25 μg/ml lipopolysaccharide (LPS, manufactured by Sigma, L-2012) and 10 μl of aqueous 5000, 1500, 500, 150 or 50 μM agarobiose or neoagarobiose (manufactured by Sigma, G4410) solution, and the plate was incubated for additional 12 hours. Then, concentration of NO2^− produced by oxidation of NO in the medium was measured. As control groups, a group to which LPS was not added and a group to which agarobiose or neoagarobiose was not added were provided.\nAfter incubating as described above, 100 μl of 4% Greece reagent (manufactured by Sigma, G4410) was added to 100 μl of the medium, and the mixture was allowed to stand for 15 minutes at room temperature. Then, the absorbance at 490 nm was measured. NO2^− concentration in the medium was calculated with reference to a calibration curve prepared by using NaNO2 at given concentrations dissolved in the same medium as that described above. All the measurements were carried out in triplicate.\n(2) A suspension of 5 g of commercially available agar (Ina agar type S-7, manufactured by Ina Shokuhin Kogyo) in 45 ml of 0.1 N HCl was treated at 95° C. for 13 minutes. After cooling to room temperature, the suspension was neutralized with NaOH and filtered through 0.22 μm MILLEX-GP filter (manufactured by Milipore, SLGPR25LS). […] Namely, 10 μl of 25 μg/ml LPS and 10 μl of a 20-fold dilution of the sample mentioned above were added to wells of a 48 well microtiter plate containing RAW264.7 cells which had been incubated in the wells. The measurement was carried out with the culture medium. As control groups, a group to which LPS was not added, a group to which a sample was not added and a group to which 2.5 mM citric acid was added were provided. All the measurement were carried out in duplicate."}, "[7]": {"details": "HL-60, after reaction with L-cysteine at 37° C. for 1 hour"}, "[8]": {"details": "HL-60, after reaction with L-cysteine at 37° C. for 16 hours"}, "[9]": {"details": "HL-60, after reaction with L-lysine at 37° C. for 16 hours"}},
  "data": [
    {"molecule": "OC[C@H]1O[C@@H](O[C@H]2[C@H]3OC[C@@H]2O[C@@H](O[C@H]2[C@@H](O)[C@@H](CO)O[C@@H](O[C@H]4[C@H]5OC[C@@H]4OC(O)[C@H]5O)[C@@H]2O)[C@H]3O)[C@H](O)[C@@H](O)[C@H]1O", "note": "(stereo partly shown) [Agarotetraose, agarotetraose]", "values": [
      {"measurement": "dilution rate of the dilution added to the group whose absorbance at 590 nm was less than one-half of that of the control group", "setting": "[1]; HL-60", "result": 64},
      {"measurement": "antiproliferation activity relative to the same concentration of the unreacted saccharide", "setting": "[1]; [7]", "result": "1/10"},
      {"measurement": "antiproliferation activity relative to the same concentration of the unreacted saccharide", "setting": "[1]; [8]", "result": "1/10"},
      {"measurement": "antiproliferation activity relative to the same concentration of the unreacted saccharide", "setting": "[1]; [9]", "result": "1/10"},
      {"measurement": "IC50", "setting": "[1]; HL-60", "result": 97, "unit": "µM"},
      {"measurement": "spot of the saccharide on thin layer chromatography after reaction", "setting": "[2]; L-cysteine, 1 hour", "result": "disappeared"},
      {"measurement": "spot of the saccharide on thin layer chromatography after reaction", "setting": "[2]; L-cysteine, 16 hours", "result": "disappeared"},
      {"measurement": "spot of the saccharide on thin layer chromatography after reaction", "setting": "[2]; L-lysine, 16 hours", "result": "disappeared"},
      {"measurement": "dilution rate of the dilution added to the group whose absorbance at 590 nm was less than one-half of that of the control group", "setting": "[3]", "result": 32},
      {"measurement": "IC50", "setting": "[3]", "result": 133, "unit": "µM"},
      {"measurement": "dilution rate of the dilution added to the group whose absorbance at 590 nm was less than one-half of that of the control group", "setting": "[4]", "result": 8},
      {"measurement": "IC50", "setting": "[4]", "result": 413, "unit": "µM"}
    ]},
    {"molecule": "OC[C@H]1O[C@@H](O[C@H]2[C@H]3OC[C@@H]2OC(O)[C@H]3O)[C@H](O)[C@@H](O)[C@H]1O", "note": "(mixture of isomers) [Agarobiose, agarobiose]", "values": [
      {"measurement": "dilution rate of the dilution added to the group whose absorbance at 590 nm was less than one-half of that of the control group", "setting": "[1]; HL-60", "result": 32},
      {"measurement": "antiproliferation activity relative to the same concentration of the unreacted saccharide", "setting": "[1]; [7]", "result": "1/10"},
      {"measurement": "antiproliferation activity relative to the same concentration of the unreacted saccharide", "setting": "[1]; [8]", "result": "1/10"},
      {"measurement": "antiproliferation activity relative to the same concentration of the unreacted saccharide", "setting": "[1]; [9]", "result": "1/10"},
      {"measurement": "cell proliferation suppressed as compared with the control group", "setting": "[1]; HL-60, agarobiose at 78 μg/ml, 48 hours", "result": "about 86%"},
      {"measurement": "IC50", "setting": "[1]; HL-60", "result": 170, "unit": "µM"},
      {"measurement": "antiproliferation activity against HL-60 cells (in words)", "setting": "[1]; listed as group 4", "result": "an antiproliferation activity was observed"},
      {"measurement": "antiproliferation activity against HL-60 cells (in words)", "setting": "[1]; listed as group 5", "result": "an antiproliferation activity was observed"},
      {"measurement": "antiproliferation activity against HL-60 cells (in words)", "setting": "[1]; listed as peak at the elution time 8.87 min.", "result": "had both activities"},
      {"measurement": "antiproliferation activity against HL-60 cells (in words)", "setting": "[1]; listed as peak at the elution time 9.40 min.", "result": "had both activities"},
      {"measurement": "Absorbance at 400 nm mean", "setting": "[5]; agarobiose 10 μg/ml", "result": 0.521},
      {"measurement": "Absorbance at 400 nm mean", "setting": "[5]; agarobiose 50 μg/ml", "result": 0.392},
      {"measurement": "Absorbance at 400 nm mean", "setting": "[5]; agarobiose 100 μg/ml", "result": 0.383},
      {"measurement": "activity of inhibiting melanin production (in words)", "setting": "[5]; agarobiose at 50 and 100 μg/ml", "result": "recognized"},
      {"measurement": "spot of the saccharide on thin layer chromatography after reaction", "setting": "[2]; L-cysteine, 1 hour", "result": "disappeared"},
      {"measurement": "spot of the saccharide on thin layer chromatography after reaction", "setting": "[2]; L-cysteine, 16 hours", "result": "disappeared"},
      {"measurement": "spot of the saccharide on thin layer chromatography after reaction", "setting": "[2]; L-lysine, 16 hours", "result": "disappeared"},
      {"measurement": "dilution rate of the dilution added to the group whose absorbance at 590 nm was less than one-half of that of the control group", "setting": "[3]", "result": 16},
      {"measurement": "IC50", "setting": "[3]", "result": 179, "unit": "µM"},
      {"measurement": "dilution rate of the dilution added to the group whose absorbance at 590 nm was less than one-half of that of the control group", "setting": "[4]", "result": 8},
      {"measurement": "IC50", "setting": "[4]", "result": 652, "unit": "µM"},
      {"measurement": "inhibition of NO production induced by LPS (in words)", "setting": "[6]", "result": "dose-dependently inhibited"}
    ]}
  ]
}
